The source of these data is ChEMBL document CHEMBL1201862, “PubChem BioAssay data set” (2004).

Common to all, as to assay: inhibition of tumour cell growth, NCI panel, 48 h
For experiment [1], the system named is SF-539.
Experiment [2] has as its system NCI-H226.
The subject of experiment [3] is OVCAR-4.
In experiment [4] the test system is SF-295.
Experiment [5] has as its system MDA-MB-435.
The subject of experiment [6] is HOP-62.
In experiment [7] the test system is MDA-N.
The subject of experiment [8] is SNB-75.
Experiment [9] concerns NCI-H23.
Experiment [10] deals with T47D.
Experiment [11] deals with HOP-92.
For experiment [12], the system named is KM12.
Experiment [13] concerns UACC-62.
Experiment [14] concerns DU-145.
Experiment [15] has as its system UACC-257.
The subject of experiment [16] is CCRF-CEM.
In experiment [17] the test system is OVCAR-8.
Experiment [18] has as its system HL-60.
Experiment [19] relates to ACHN.
Experiment [20] relates to SNB-19.

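Five concentrations, 48 hours, 96-well plates. GI50: concentration for 50% inhibition of growth.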 Activity calls are given as the source filed them. No stated cut-off is given here; in the data, active = GI50 up to about 1.1 µM and inactive = higher.

As for `O=C(O)c1cc(CCc2cc(O)ccc2O)ccc1O`, the GI50 in [1], in [2], in experiment [3], in experiment [4], in [5] and in [6] was > 100 µM (inactive) throughout. Also, the GI50 in experiment [7] is 14 µM (inactive); in [8], > 100 µM (inactive); in [9] it was > 100 µM (inactive); in experiment [10], > 100 µM (inactive); in experiment [11], > 100 µM (inactive); in experiment [12], > 100 µM (inactive). In addition, the GI50 in [13] was > 100 µM (inactive); in experiment [14] it was > 100 µM (inactive); in experiment [15], > 100 µM (inactive); in experiment [16], 26.9 µM (inactive); in experiment [17], > 100 µM (inactive); in [18] it was 30.6 µM (inactive). Moreover, in experiment [19], the GI50 was > 100 µM (inactive).

Consider `CCOC(=O)Cn1nc2ccc(Nc3c(C)[n+]([O-])c4cc(F)c(OCC)cc4[n+]3[O-])cc2n1`, for which the GI50 in experiment [1] is 83 µM (inactive); in experiment [2] it was > 100 µM (inactive); in experiment [3], > 100 µM (inactive); in experiment [4] it was 44.2 µM (inactive); in experiment [5] it was > 100 µM (inactive); in experiment [6] it was 33 µM (inactive). In addition, the GI50 in experiment [7] is > 100 µM (inactive); in [9] it was > 100 µM (inactive); in [10], > 100 µM (inactive); in [11] it was 18.2 µM (inactive); in [12] it was > 100 µM (inactive); in experiment [14] it was > 100 µM (inactive). The GI50 was > 100 µM (inactive) in experiment [15]; > 100 µM (inactive) in experiment [16]; > 100 µM (inactive) in experiment [17]; > 100 µM (inactive) in experiment [18]; 22.4 µM (inactive) in [19].

For the compound `CCOC(=O)C1C(C(C)C)C2(C#N)C(=N)OC1(C)C2(C#N)C#N` (stereo unspecified), the GI50 in experiment [1] was > 100 µM (inactive); in [2], 56.4 µM (inactive); in experiment [4], > 100 µM (inactive); in experiment [5], 35.3 µM (inactive); in experiment [7] it was 16.2 µM (inactive); in experiment [8] it was 13.3 µM (inactive). For the same compound, the GI50 is 54.5 µM (inactive) in [9]; 49.7 µM (inactive) in [10]; 21.2 µM (inactive) in experiment [11]; > 100 µM (inactive) in experiment [12]; 88.9 µM (inactive) in [13]; > 100 µM (inactive) in experiment [20]. Also, the GI50 is > 100 µM (inactive) in [14]; 54.8 µM (inactive) in experiment [15]; 47 µM (inactive) in [16]; > 100 µM (inactive) in experiment [17]; 30 µM (inactive) in [18]; > 100 µM (inactive) in experiment [19].

Turning to `O=C(OC1OC2COC(=O)c3cc(O)c(O)c(O)c3-c3c(cc(O)c(O)c3O)C(=O)OC3C2OC(=O)[C@@]24CC(=O)[C@@](O)(OC25C(=O)O[C@H]2[C@@H](O)CO[C@@]25O)C2(O)Oc5c(O)c(O)cc(c5C24)C(=O)OC13)c1cc(O)c(O)c(O)c1` (stereo partly specified), the GI50 in experiment [2] is 90.4 µM (inactive); in experiment [3], 37.2 µM (inactive); in experiment [4], 44 µM (inactive); in experiment [5] it was 17.2 µM (inactive); in experiment [6], 74.5 µM (inactive); in [7], 31.5 µM (inactive). Further, the GI50 in experiment [8] was 34 µM (inactive); in experiment [9], 25.7 µM (inactive); in experiment [10], 74 µM (inactive); in experiment [11] it was 31.2 µM (inactive); in experiment [12] it was 18.8 µM (inactive); in [13], 35.7 µM (inactive). In addition, the GI50 was > 100 µM (inactive) in [20]; 44.7 µM (inactive) in experiment [14]; > 100 µM (inactive) in experiment [15]; 26.7 µM (inactive) in experiment [16]; 37.1 µM (inactive) in [17]; 21.2 µM (inactive) in experiment [18]. Moreover, the GI50 in experiment [19] is 32.1 µM (inactive).

For the compound `CC(=C/C=C/C=C(C)\C=C\C=C(\C)C(=O)O)/C=C/C=C(/C)C(=O)O`, the GI50 in experiment [1], in experiment [2], in experiment [3], in [4], in [5] and in experiment [6] was > 100 µM (inactive) throughout. In addition, the GI50 in experiment [7], in [8], in experiment [9], in experiment [10], in experiment [11] and in [12] was > 100 µM (inactive) throughout. Further, the GI50 in experiment [13] is > 100 µM (inactive); in experiment [14], > 100 µM (inactive); in experiment [15], > 100 µM (inactive); in experiment [16] it was > 100 µM (inactive); in experiment [17], > 100 µM (inactive); in [18] it was 25.5 µM (inactive). The GI50 in experiment [19] is > 100 µM (inactive).

For the compound `O=C(c1cccnc1)N1N=C(c2ccc(Cl)cc2)CC1(O)c1cc(F)c(Cl)cc1Cl` (stereo unspecified), the GI50 in [1] is 12.2 µM (inactive); in [2], 11.6 µM (inactive); in [3], 15.8 µM (inactive); in [4], 19.5 µM (inactive); in [5], 15.9 µM (inactive); in experiment [6], 21.5 µM (inactive). Besides, the GI50 in [7] was 16.7 µM (inactive); in experiment [8], 5.7 µM (inactive); in [9], 18.5 µM (inactive); in experiment [10], 2.39 µM (inactive); in experiment [11] it was 17.5 µM (inactive); in experiment [12], 28.8 µM (inactive). Moreover, the GI50 in [20] was 41.3 µM (inactive); in experiment [14], 16.9 µM (inactive); in experiment [15] it was 18.5 µM (inactive); in experiment [16], 13.3 µM (inactive); in experiment [17], 25.1 µM (inactive); in experiment [18], 15.1 µM (inactive). Moreover, the GI50 in experiment [19] was 18.8 µM (inactive).

On to `[N-]=[N+]=Nc1cc(=O)n2c3c(cccc13)CCC2`, for which the GI50 in experiment [1], in experiment [2], in [3], in experiment [4], in experiment [5] and in experiment [6] was > 100 µM (inactive) in each case. Further, the GI50 in experiment [7], in [8], in experiment [9], in experiment [10], in experiment [11] and in [12] was > 100 µM (inactive) throughout. Also, the GI50 in experiment [13], in [14], in experiment [15], in [16], in [17] and in experiment [18] was > 100 µM (inactive) in each case. Besides, the GI50 in experiment [19] was > 100 µM (inactive).

As for `Nc1nc(Cl)cc(Nc2ccc3c(c2)CCC3)n1`, the GI50 in experiment [1], in [2], in experiment [3], in [4], in [5] and in experiment [7] was > 100 µM (inactive) each time. Moreover, the GI50 in experiment [9] is > 100 µM (inactive); in [10] it was > 100 µM (inactive); in experiment [11], > 100 µM (inactive); in experiment [12], 36.1 µM (inactive); in [13] it was > 100 µM (inactive); in [20] it was > 100 µM (inactive). Further, the GI50 in [14] is > 100 µM (inactive); in experiment [15], > 100 µM (inactive); in experiment [16], 44.3 µM (inactive); in experiment [17], 80.9 µM (inactive); in [18] it was 37.2 µM (inactive); in experiment [19] it was > 100 µM (inactive).

As for `C[C@@](O)(/C=C/[C@H]1CC=CC(=O)O1)[C@@H](C[C@@H](O)\C=C/C=C\C=C\CO)OP(=O)(O)O` [FOSTRIECIN SODIUM], the GI50 in experiment [1] was 7.23 µM (inactive); in experiment [2], 7.4 µM (inactive); in experiment [3], 5.27 µM (inactive); in experiment [4], 3.94 µM (inactive); in experiment [5], 1.28 µM (inactive); in experiment [6] it was 4.9 µM (inactive). Further, the GI50 in experiment [7] is 0.828 µM (active); in experiment [9] it was 10.2 µM (inactive); in experiment [10] it was 48.1 µM (inactive); in experiment [11], 2.27 µM (inactive); in experiment [12], 6.08 µM (inactive); in experiment [13], 3.77 µM (inactive). Also, the GI50 in experiment [20] is 32.3 µM (inactive); in experiment [14], 3.21 µM (inactive); in experiment [15] it was 4.94 µM (inactive); in experiment [16], 2.12 µM (inactive); in [17] it was 9.48 µM (inactive); in experiment [18], 1.1 µM (active). The GI50 in experiment [19] is 4.51 µM (inactive).

As for `COc1nc(N(C)C)nc2c1[n+](C)cn2C` [HETEROMINE A], the GI50 in experiment [1] was 52.6 µM (inactive); in experiment [2], > 100 µM (inactive); in experiment [4], 38.9 µM (inactive); in [5], 74.8 µM (inactive); in [6] it was > 100 µM (inactive); in experiment [7], 94.6 µM (inactive). In addition, the GI50 is > 100 µM (inactive) in experiment [8]; 22.4 µM (inactive) in experiment [9]; 41.5 µM (inactive) in [10]; > 100 µM (inactive) in experiment [11]; 27.7 µM (inactive) in [12]; > 100 µM (inactive) in experiment [13]. In addition, the GI50 in experiment [20] is 25.1 µM (inactive); in experiment [14], > 100 µM (inactive); in experiment [15], 53.1 µM (inactive); in experiment [16], 30.3 µM (inactive); in [17], 44.1 µM (inactive); in experiment [18], 36.6 µM (inactive). For the same compound, the GI50 in experiment [19] was > 100 µM (inactive).
